# Test system: NCI-H1341 complex spheroids, percent test/control
# Assay: Anticancer human tumor NCI-H1341 cell line growth inhibition [AhR];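 further: spheroids exposed to agents for seven days before readout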
# Conditions: for IC50: curve of first compound; for viability, T/C: stronger effect = lower value
# Outline: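 Complex tumor spheroids co-cultured with HUVEC and human MSC stroma; AhR antagonists tested in combination with standard-of-care and investigational agents. Top concentration at or near clinical Cmax (else 10 microM), half-log dilutions; growth expressed as percent test/control.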
# [1] = second compound 0.1 µM, first compound 0.000949 µM
# [2] = second compound 0.1 µM, first compound 0.003 µM
# [3] = second compound 0.1 µM, first compound 0.00949 µM
# [4] = second compound 0.1 µM, first compound 0.03 µM
# [5] = second compound 0.1 µM, first compound 0.0949 µM
# [6] = second compound 0.1 µM, first compound 0.3 µM
# [7] = second compound 0.316 µM, first compound 0.000949 µM
# [8] = second compound 0.316 µM, first compound 0.003 µM
# [9] = second compound 0.316 µM, first compound 0.00949 µM
# [10] = second compound 0.316 µM, first compound 0.03 µM
# [11] = second compound 0.316 µM, first compound 0.0949 µM
# [12] = second compound 0.316 µM, first compound 0.3 µM
# [13] = second compound 1 µM, first compound 0.000949 µM
# [14] = second compound 1 µM, first compound 0.003 µM
# [15] = second compound 1 µM, first compound 0.00949 µM
# [16] = second compound 1 µM, first compound 0.03 µM
# [17] = second compound 1 µM, first compound 0.0949 µM
# [18] = second compound 1 µM, first compound 0.3 µM
# [19] = second compound 3.16 µM, first compound 0.000949 µM
# [20] = second compound 3.16 µM, first compound 0.003 µM
# [21] = second compound 3.16 µM, first compound 0.00949 µM
# [22] = second compound 3.16 µM, first compound 0.03 µM
# [23] = second compound 3.16 µM, first compound 0.0949 µM
# [24] = second compound 3.16 µM, first compound 0.3 µM
# [25] = second compound 10 µM, first compound 0.000949 µM
# [26] = second compound 10 µM, first compound 0.003 µM
# [27] = second compound 10 µM, first compound 0.00949 µM
# [28] = second compound 10 µM, first compound 0.03 µM
# [29] = second compound 10 µM, first compound 0.0949 µM
# [30] = second compound 10 µM, first compound 0.3 µM
smiles,measurement,setting,value
Nc1ncn(C2CC(O)C(CO)S2)c(=O)n1 (stereo not given) + Cc1ccccc1N=Nc1ccc(NC(=O)c2ccnn2C)c(C)c1,IC50,second compound 0.1 µM,165 nM
same,IC50,second compound 0.316 µM,281 nM
same,IC50,second compound 1 µM,263 nM
same,IC50,second compound 3.16 µM,236 nM
same,IC50,second compound 10 µM,17.4 nM
same,"viability, T/C",[1],71.8%
same,"viability, T/C",[2],84.3%
same,"viability, T/C",[3],83.3%
same,"viability, T/C",[4],65%
same,"viability, T/C",[5],61.3%
same,"viability, T/C",[6],40%
same,"viability, T/C",[7],78.8%
same,"viability, T/C",[8],95%
same,"viability, T/C",[9],93.2%
same,"viability, T/C",[10],87.7%
same,"viability, T/C",[11],78%
same,"viability, T/C",[12],48.1%
same,"viability, T/C",[13],78.2%
same,"viability, T/C",[14],85.8%
same,"viability, T/C",[15],84.9%
same,"viability, T/C",[16],81.3%
same,"viability, T/C",[17],74.1%
same,"viability, T/C",[18],46.8%
same,"viability, T/C",[19],88%
same,"viability, T/C",[20],62.4%
same,"viability, T/C",[21],66%
same,"viability, T/C",[22],69.6%
same,"viability, T/C",[23],62.6%
same,"viability, T/C",[24],43.8%
same,"viability, T/C",[25],51.4%
same,"viability, T/C",[26],54.6%
same,"viability, T/C",[27],53%
same,"viability, T/C",[28],45.8%
same,"viability, T/C",[29],45.2%
same,"viability, T/C",[30],34.9%
CC(C)CC(NC(=O)C(Cc1ccccc1)NC(=O)c1cnccn1)B(O)O (stereo not given) + Cc1cncc(-c2nc(NCCc3c[nH]c4ccccc34)c3ncn(C(C)C)c3n2)c1,IC50,second compound 0.1 µM,5.11 nM
same,IC50,second compound 0.316 µM,4.76 nM
same,IC50,second compound 1 µM,4 nM
same,IC50,second compound 3.16 µM,3.73 nM
same,IC50,second compound 10 µM,< 0.949 nM
same,"viability, T/C",[1],98.4%
same,"viability, T/C",[2],89.7%
same,"viability, T/C",[3],3.87%
same,"viability, T/C",[4],0.1%
same,"viability, T/C",[5],0.05%
same,"viability, T/C",[6],0.16%
same,"viability, T/C",[7],80.5%
same,"viability, T/C",[8],83.1%
same,"viability, T/C",[9],2.53%
same,"viability, T/C",[10],0.14%
same,"viability, T/C",[11],0.06%
same,"viability, T/C",[12],0.12%
same,"viability, T/C",[13],83.4%
same,"viability, T/C",[14],65.8%
same,"viability, T/C",[15],2.45%
same,"viability, T/C",[16],0.11%
same,"viability, T/C",[17],0.05%
same,"viability, T/C",[18],0.5%
same,"viability, T/C",[19],56.4%
same,"viability, T/C",[20],66.4%
same,"viability, T/C",[21],1.23%
same,"viability, T/C",[22],0.06%
same,"viability, T/C",[23],0.08%
same,"viability, T/C",[24],0.14%
same,"viability, T/C",[25],28%
same,"viability, T/C",[26],58.4%
same,"viability, T/C",[27],0.22%
same,"viability, T/C",[28],0.14%
same,"viability, T/C",[29],0.15%
same,"viability, T/C",[30],0.17%
Nc1ncn(C2CC(O)C(CO)S2)c(=O)n1 (stereo not given) + CC(CO)NC(=O)c1cc(-c2ccc(Cl)cc2)nn(-c2cnn(C)c2)c1=O,IC50,second compound 0.1 µM,271 nM
same,IC50,second compound 0.316 µM,220 nM
same,IC50,second compound 1 µM,223 nM
same,IC50,second compound 3.16 µM,214 nM
same,IC50,second compound 10 µM,234 nM
same,"viability, T/C",[1],89.1%
same,"viability, T/C",[2],94.3%
same,"viability, T/C",[3],91.2%
same,"viability, T/C",[4],89.3%
same,"viability, T/C",[5],63.6%
same,"viability, T/C",[6],48.7%
same,"viability, T/C",[7],94.6%
same,"viability, T/C",[8],91.5%
same,"viability, T/C",[9],84.5%
same,"viability, T/C",[10],89.8%
same,"viability, T/C",[11],78.3%
same,"viability, T/C",[12],39.2%
same,"viability, T/C",[13],75.3%
same,"viability, T/C",[14],105%
same,"viability, T/C",[15],91.8%
same,"viability, T/C",[16],79.6%
same,"viability, T/C",[17],76.2%
same,"viability, T/C",[18],41.3%
same,"viability, T/C",[19],86%
same,"viability, T/C",[20],96.1%
same,"viability, T/C",[21],85.6%
same,"viability, T/C",[22],82.7%
same,"viability, T/C",[23],69.2%
same,"viability, T/C",[24],42%
same,"viability, T/C",[25],73.3%
same,"viability, T/C",[26],73.1%
same,"viability, T/C",[27],79.1%
same,"viability, T/C",[28],69.2%
same,"viability, T/C",[29],63.6%
same,"viability, T/C",[30],46%
O=C(C=Cc1cccc(S(=O)(=O)Nc2ccccc2)c1)NO + Cc1cncc(-c2nc(NCCc3c[nH]c4ccccc34)c3ncn(C(C)C)c3n2)c1,IC50,second compound 0.1 µM,278 nM
same,IC50,second compound 0.316 µM,366 nM
same,IC50,second compound 1 µM,179 nM
same,IC50,second compound 3.16 µM,150 nM
same,IC50,second compound 10 µM,< 31.6 nM
same,"viability, T/C","second compound 0.1 µM, first compound 0.0316 µM",71.7%
same,"viability, T/C","second compound 0.1 µM, first compound 0.1 µM",80.8%
same,"viability, T/C","second compound 0.1 µM, first compound 0.316 µM",43.8%
same,"viability, T/C","second compound 0.1 µM, first compound 1 µM",16%
same,"viability, T/C","second compound 0.1 µM, first compound 3.16 µM",5.29%
same,"viability, T/C","second compound 0.1 µM, first compound 10 µM",0.53%
same,"viability, T/C","second compound 0.316 µM, first compound 0.0316 µM",76.2%
same,"viability, T/C","second compound 0.316 µM, first compound 0.1 µM",74.7%
same,"viability, T/C","second compound 0.316 µM, first compound 0.316 µM",55.1%
same,"viability, T/C","second compound 0.316 µM, first compound 1 µM",15.3%
same,"viability, T/C","second compound 0.316 µM, first compound 3.16 µM",5.78%
same,"viability, T/C","second compound 0.316 µM, first compound 10 µM",0.65%
same,"viability, T/C","second compound 1 µM, first compound 0.0316 µM",80.3%
same,"viability, T/C","second compound 1 µM, first compound 0.1 µM",55.7%
same,"viability, T/C","second compound 1 µM, first compound 0.316 µM",44.9%
same,"viability, T/C","second compound 1 µM, first compound 1 µM",22.9%
same,"viability, T/C","second compound 1 µM, first compound 3.16 µM",5.39%
same,"viability, T/C","second compound 1 µM, first compound 10 µM",0.5%
same,"viability, T/C","second compound 3.16 µM, first compound 0.0316 µM",71.2%
same,"viability, T/C","second compound 3.16 µM, first compound 0.1 µM",55.6%
same,"viability, T/C","second compound 3.16 µM, first compound 0.316 µM",38.1%
same,"viability, T/C","second compound 3.16 µM, first compound 1 µM",13.1%
same,"viability, T/C","second compound 3.16 µM, first compound 3.16 µM",4.08%
same,"viability, T/C","second compound 3.16 µM, first compound 10 µM",0.56%
same,"viability, T/C","second compound 10 µM, first compound 0.0316 µM",37%
same,"viability, T/C","second compound 10 µM, first compound 0.1 µM",33.9%
same,"viability, T/C","second compound 10 µM, first compound 0.316 µM",20.2%
same,"viability, T/C","second compound 10 µM, first compound 1 µM",9.91%
same,"viability, T/C","second compound 10 µM, first compound 3.16 µM",2.99%
same,"viability, T/C","second compound 10 µM, first compound 10 µM",0.32%

# Source: PubChem BioAssay AID1919014 (Molecular Pharmacology Branch, DTP, NCI, 2023)
